Reference: patent US20230270711A1, “Improved Anti-Hangover Composition, Its Preparation and Uses” (Zobrius Pharma AS, priority 2019, published 2023)

How the values were obtained:
[1] = molecular target: LADH; conditions: read-out: Ki, inhibition of LADH; cited from earlier work
[2] = tested on: alcohol metabolism; experiment: Clinical Study Protocol: alcohol metabolism from BAC (CA 2000 Digital Alcohol Detector), Examples 1 and 2; assay type: in vivo, human; conditions: in the 500 ml Composition A (90 g fructose)
Method: Clinical Study Protocol—The studies presented in Examples 1 and 2 were carried out with 10 individuals (6 males and 4 females, aged 24-57 years).
In the control study (using water alone as the after-alcohol drink), the test persons were given 8 oz. (ca.2.4 dl) of vodka mixed with 6 dl Sprite® (The Coca Cola Company). The alcohol was consumed within one hour. At a given time, 30-60 minutes after alcohol consumption, each person drank a given volume of water (control composition). The alcohol level was then measured as described below.
One week later, a second study was carried out, wherein the same test persons were given the same amounts of vodka and Sprite®, respectively. At the given time after alcohol consumption, each test person drank the given volume of a test composition. The alcohol level was then measured as described just below.
Blood alcohol concentration (BAC) was measured, using a CA 2000 Digital Alcohol Detector, once every 30 minutes in each experiment. Each value is an average of four parallel measurements. Evaluation of effect against hangover was graded on a scale from 1-10 (where 10 represents the greatest effect).
The study protocol was carried out as described above, wherein the test composition comprised Comparative Composition A (defined below); the given time was 45 minutes; and the given volume was 500 ml. […]

Row | Compound | Ki [1] [µM] | Contribution of fructose to the acceleration of alcohol degradation [2]
1 | NC(=O)C1=CN([C@@H]2O[C@H](COP(=O)(O)OP(=O)(O)OC[C@H]3O[C@@H](n4cnc5c(N)ncnc54)[C@H](O)[C@@H]3O)[C@@H](O)[C@H]2O)C=CC1 [NADH] | 56 | –
2 | O=C(CO)[C@@H](O)[C@H](O)[C@H](O)CO [fructose] | – | 20-25%
